Assay results reported in paper PMC6669513, “Identification of A Novel Antibacterial Peptide from Atlantic Mackerel belonging to the GAPDH-Related Antimicrobial Family and Its In Vitro Digestibility” (Marine Drugs, 2019).
No end group written: not given here.

Experiments:
gastric pepsin = settings: upper gastrointestinal conditions; cited from earlier work
Description: Food additives such as AMPs must be safe for the human microbiota and the environment. Consequently, knowing the digestibility of AMPs in the human gastrointestinal tract is critical and should not be underestimated. The TIM-1 model used to evaluate the stability of the synthetic peptide simulated the major GI stress conditions, such as gastric acid environment, excretion of proteolytic enzymes and bile salts, and peristaltic movements.

Bacillus megaterium B301 = settings: Bacillus B301, 48 h
[1] = tested on: Lactobacillus acidophilus ATCC 4356; experiment: MIC, broth microdilution; format: cell-based; settings: two-fold dilution series from 1.050 mM stock in Mueller-Hinton Broth or Brucella Broth; 5.10^5 CFU/mL; visible growth after 24 or 48 h
[2] = tested on: Listeria monocytogenes ATCC 15313; settings: ATCC 15313, 48 h
Enterococcus faecium L1 = settings: L1, 48 h
[3] = tested on: Bacteroides thetaiotaomicron ATCC 29741; settings: two-fold dilution series from 1.050 mM stock in Mueller-Hinton Broth or Brucella Broth; 5.10^5 CFU/mL; visible growth after 24 or 48 h
[4] = tested on: Staphylococcus aureus ATCC 25923; settings: ATCC 25923, 48 h
[5] = tested on: Blautia coccoides ATCC 29236; settings: ATCC 29236, 48 h
Micrococcus luteus 272 = experiment: MIC, broth microdilution; format: cell-based; settings: two-fold dilution series from 1.050 mM stock in Mueller-Hinton Broth or Brucella Broth; 5.10^5 CFU/mL; visible growth after 24 or 48 h
[6] = tested on: Bifidobacterium infantis ATCC 15697; settings: ATCC 15697, 48 h
[7] = tested on: Escherichia coli ATCC 25922; settings: ATCC 25922, 48 h
[8] = tested on: Pseudomonas aeruginosa ATCC 27853; settings: ATCC 27853, 48 h
[9] = tested on: Enterococcus faecalis ATCC 29212; settings: ATCC 29212, 48 h
[10] = tested on: Listeria ivanovii ATCC 19119; settings: ATCC 19119, 48 h
[11] = format: in vitro ADME
Protocol: The dynamic GI TIM-1 Model (TNO Nutrition and Food Research Institute, Zeist, the Netherlands) described previously by was used for evaluation of peptide digestibility. Gastric pH began at 4.5 and decreased gradually to 3.6 after 20 min, 2.7 after 40 min and 2.0 after 60 min of digestion by injecting 0.5 mol/L HCl, finally reaching 1.7 after 120 min. The pH of the duodenal, jejunal and ileal compartments was adjusted to 6, 6.8 and 7.2, respectively, by injecting 0.5 mol/L sodium bicarbonate solution. Gastric secretions consisted of pepsin (0.163 mg/mL) from porcine gastric mucosa (EC 3.4.23.1; Sigma-Aldrich Canada Ltd., Oakville, ON, Canada) and lipase (0.133 mg/mL) from Rhizopus oryzae (EC 3.1.1.3; Amano Pharmaceuticals, Nagoya, Japan), both in an electrolyte solution (NaCl, 6.2 g/L; KCl, 2.2 g/L; CaCl2, 0.3 g/L; NaHCO3, 1.5 g/L) delivered at a flow rate of 0.25 mL/min. […]
To check the digestibility of the synthetic GAPDH-related derived peptide, TIM samples were separated by SPE-C18 before analysis by FPLC with ionic exchange column (IEX). […] The absorbance was recorded at 214 nm and collected fractions were screened for sequence peptides by LC-MS/MS analysis as described above.

[12] = tested on: Vibrio parahaemolyticus ALN-0312; settings: 48 h

Substance | Stability with gastric pepsin combined with low pH (gastric pepsin) | MIC (Bacillus megaterium B301) | MIC [1] | MIC [2] | MIC (Enterococcus faecium L1) | MIC [3] | MIC [4] | MIC [5] | MIC (Micrococcus luteus 272) | MIC [6] | MIC [7] | MIC [8] | MIC [9] | MIC [10] | Proportion of intact synthetic peptide in the effluent fraction [11] | Sensitivity to the digestive process ([11]; pH 2.7) | MIC [12]
pediocin PA-1: pediocin PA-1, compared for stability under upper gastrointestinal conditions (KYYGNGVTCGKHSCSVDWGKATTCIINNGAMAWATGGHQGNHKC; ends and bridges not checked; cysteine pairing not given here; UniProt P29430 19-62, looked up) | reduced its stability |  |  |  |  |  |  |  |  |  |  |  |  |  |  |  | 
KVEIVAINDPFIDL [AMGAP] |  | >1050 µM | 263 µM | 131 µM | >1050 µM | 263 µM | >1050 µM | >1050 µM | 263 µM | >1050 µM | >1050 µM | >1050 µM | >1050 µM | 131 µM | 2% | sensitive | >1050 µM
